{
  "source": "patent US7157582B2",
  "about": "“Selective iGluR5 receptor antagonists” (Eli Lilly and Company, priority 1999, dated 2007)",
  "key": {"[1]": {"tested_on": "dural protein extravasation", "experiment": "Animal model of dural protein extravasation (guinea pig)", "assay_type": "in vivo", "details": "Gpig (guinea pig), i.v.", "description": "(§1) The following animal model was employed to determine the ability of each of the panel of compounds to inhibit protein extravasation, an exemplary functional assay of the neuronal mechanism of migraine.\nHarlan Sprague-Dawley rats (225–325 g) or guinea pigs from Charles River Laboratories (225–325 g) were anesthetized with sodium pentobarbital intraperitoneally (65 mg/kg or 45 mg/kg respectively) and placed in a stereotaxic frame (David Kopf Instruments) with the incisor bar set at −3.5 mm for rats or −4.0 mm for guinea pigs. […]\n(§2) A fluorescence microscope (Zeiss) equipped with a grating monchromator and a spectrophotometer was used to quantify the amount of Evans Blue dye in each sample. An excitation wavelength of approximately 535 nm was utilized and the emission intensity at 600 nm was determined. […] This facilitated the computer-controlled movement of the stage with fluorescence measurements at 25 points ([…]) on each dural sample. The mean and standard deviation of the measurements were determined by the computer.\n(§3) The extravasation induced by the electrical stimulation of the trigeminal ganglion was an ipsilateral effect (i.e. occurs only on the side of the dura in which the trigeminal ganglion was stimulated). […] The ratio of the amount of extravasation in the dura from the stimulated side, over the amount of extravasation in the unstimulated side, was calculated. […]"}, "[2]": {"tested_on": "dural protein extravasation", "experiment": "Animal model of dural protein extravasation (rat)", "assay_type": "in vivo", "details": "for Inhibition of Dural Protein Extravasation ID50: rat, i.v.", "description": "as §1\nHarlan Sprague-Dawley rats (225–325 g) or guinea pigs from Charles River Laboratories (225–325 g) were anesthetized with sodium pentobarbital intraperitoneally (65 mg/kg or 45 mg/kg respectively) and placed in a stereotaxic frame (David Kopf Instruments) with the incisor bar set at −3.5 mm for rats or −4.0 mm for guinea pigs. Following a midline sagital scalp incision, two pairs of bilateral holes were drilled through the skull (6 mm posterially, 2.0 and 4.0 mm laterally in rats; 4 mm posteriorly and 3.2 and 5.2 mm laterally in guinea pigs, all coordinates referenced to bregma). Pairs of stainless steel stimulating electrodes, insulated except at the tips (Rhodes Medical Systems, Inc.), were lowered through the holes in both hemispheres to a depth of 9 mm (rats) or 10.5 mm (guinea pigs) from dura.\nThe femoral vein was exposed and a dose of the test compound was injected intravenously (i.v.) at a dosing volume of 1 ml/Kg or, in the alternative, test compound was administered orally (p.o) via gavage at a volume of 2.0 ml/Kg. Approximately 7 minutes post i.v. injection, a 50 mg/Kg dose of Evans Blue, a fluorescent dye, was also injected intravenously. The Evans Blue complexed with proteins in the blood and functioned as a marker for protein extravasation. Exactly 10 minutes post-injection of the test compound, the left trigeminal ganglion was stimulated for 3 minutes at a current intensity of 1.0 mA (5 Hz, 4 msec duration) with a Model 273 potentiostat/galvanostat (EG&G Princeton Applied Research).\nFifteen minutes following stimulation, the animals were killed and exsanguinated with 20 mL of saline. The top of the skull was removed to facilitate the collection of the dural membranes. […]\nas §2, §3"}},
  "data": [
    {"smiles": "O=C(O)c1ccc(C[C@H]2CC[C@H]3CN[C@H](C(=O)O)C[C@H]3C2)cc1", "note": "[Compound I, 3S,4aR,6S,8aR-6-(((4-carboxy)phenyl)methyl)-1,2,3,4,4a,5,6,7,8,8a-decahydroisoquinoline-3-carboxylic acid]", "values": [
      {"measurement": "Inhibition of Dural Protein Extravasation ID50", "setting": "[1]", "value": "4.0 (Gpig) ng/Kg"},
      {"measurement": "Inhibition of Dural Protein Extravasation ID50", "setting": "[2]", "value": "6.5 (rat), ng/Kg"}
    ]},
    {"smiles": "O=C(O)[C@@H]1C[C@H]2C[C@@H](COCc3nnn[nH]3)CC[C@H]2CN1", "note": "[Compound II, 3S,4aR,6S,8aR-6-((((1H-Tetrazole-5-yl)methyl)oxy)methyl)-1,2,3,4,4a,5,6,7,8,8a-decahydroisoquinoline-3-carboxylic acid]", "values": [
      {"measurement": "Inhibition of Dural Protein Extravasation ID50", "setting": "[2]", "value": "15 (rat) ng/Kg"}
    ]},
    {"smiles": "O=C(O)[C@@H]1C[C@H]2C[C@@H](CCSc3nnn[nH]3)CC[C@H]2CN1", "note": "[Compound III]", "values": [
      {"measurement": "Inhibition of Dural Protein Extravasation ID50", "setting": "[2]", "value": ".0053 (rat) ng/Kg"}
    ]},
    {"smiles": "CCOC(=O)[C@@H]1C[C@H]2C[C@@H](CN3CC(F)(F)C[C@H]3C(=O)OCC)CC[C@H]2CN1", "note": "[Compound IV(b), 3S,4aR,6S,8aR Ethyl 6-(((2S)-2-(Ethoxycarbonyl)-4,4-difluoropyrrolidinyl)methyl)-1,2,3,4,4a,5,6,7,8,8a-decahydroisoquinoline-3-carboxylate]", "values": [
      {"measurement": "Inhibition of Dural Protein Extravasation ID100", "setting": "[2]; p.o., species not given", "value": "1e-05", "unit": "µg/kg"}
    ]}
  ]
}
